# Values quoted from earlier work, collected in patent US20110184054A1, “Alpha-lipoic acid concentrate” (AQUANOVA GERMAN SOLUBILISATE TECHNOLOGIES (AGT) GmbH, priority 2004, published 2011).
# Experiments:
# [1] = test system: overweight patients
# [2] = test system: rats
smiles,measurement,setting,value
O=C(O)CCCCC1CCSS1 (stereo not drawn) [α-lipoic acid],effect on problems of overweight patients,[1],alleviates their problems
same,appetite suppressing effect,[2],a certain appetite suppressing effect
